From BindingDB's records for doi:10.1016/j.bioorg.2016.12.008 (Fayoum University, 2017) come the findings set out here.

Assay [1] addresses T1, Prostaglandin G/H synthase 2 (Ovis aries, UniProt P79208).
T1 sequence (P79208 whole entry): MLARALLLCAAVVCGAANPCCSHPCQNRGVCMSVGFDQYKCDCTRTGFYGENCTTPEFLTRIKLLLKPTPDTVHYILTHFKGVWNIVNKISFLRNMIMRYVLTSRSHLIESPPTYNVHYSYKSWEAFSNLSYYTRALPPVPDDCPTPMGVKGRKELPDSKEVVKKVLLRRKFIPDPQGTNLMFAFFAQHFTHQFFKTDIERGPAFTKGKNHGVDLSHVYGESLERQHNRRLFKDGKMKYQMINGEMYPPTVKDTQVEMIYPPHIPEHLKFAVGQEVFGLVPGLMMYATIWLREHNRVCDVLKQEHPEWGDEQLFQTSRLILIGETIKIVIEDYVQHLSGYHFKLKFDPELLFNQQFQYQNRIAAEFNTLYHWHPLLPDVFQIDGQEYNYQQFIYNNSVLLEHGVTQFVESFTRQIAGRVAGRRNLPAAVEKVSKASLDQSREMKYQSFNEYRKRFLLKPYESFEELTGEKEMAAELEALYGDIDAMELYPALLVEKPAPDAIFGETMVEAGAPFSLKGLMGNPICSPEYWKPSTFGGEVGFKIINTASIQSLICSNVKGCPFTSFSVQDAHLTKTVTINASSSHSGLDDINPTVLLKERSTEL
In words: In Vitro Cyclooxygenase (COX) Inhibition Assay. The protocol: (§1) Different concentrations of either celecoxib or tested compounds were incubated with the enzymes for a period of 5 min at 25 °C. After the incubation period the colorimetric substrate and arachidonic acid were added after that the absorbance was measured at 590 nm using plate reader.

In assay [2] the target is T2, Prostaglandin G/H synthase 1 (Ovis aries, UniProt P05979).
T2 sequence (P05979 whole entry): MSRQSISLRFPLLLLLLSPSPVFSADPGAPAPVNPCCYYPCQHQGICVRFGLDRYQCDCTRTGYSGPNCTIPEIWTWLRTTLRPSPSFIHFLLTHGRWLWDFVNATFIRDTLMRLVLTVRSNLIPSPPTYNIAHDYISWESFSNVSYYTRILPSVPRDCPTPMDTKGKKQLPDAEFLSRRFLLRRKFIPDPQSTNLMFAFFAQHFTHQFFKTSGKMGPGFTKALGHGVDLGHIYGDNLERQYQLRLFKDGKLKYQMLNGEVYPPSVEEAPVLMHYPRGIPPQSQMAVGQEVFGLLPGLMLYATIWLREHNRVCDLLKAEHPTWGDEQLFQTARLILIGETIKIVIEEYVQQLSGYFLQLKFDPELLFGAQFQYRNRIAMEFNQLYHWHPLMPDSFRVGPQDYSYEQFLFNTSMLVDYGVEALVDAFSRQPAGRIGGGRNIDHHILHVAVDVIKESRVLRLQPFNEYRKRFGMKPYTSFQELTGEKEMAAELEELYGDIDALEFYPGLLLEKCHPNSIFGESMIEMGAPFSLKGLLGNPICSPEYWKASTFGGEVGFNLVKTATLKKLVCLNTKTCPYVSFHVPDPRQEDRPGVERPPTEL
In words: In Vitro Cyclooxygenase (COX) Inhibition Assay. Here is the method:
as §1

Each structure is given as a SMILES string.

Consider `CC(C)Cc1ccc(-c2cc(-c3ccc(F)cc3)c(C#N)c(=O)[nH]2)cc1` [4-(4-Fluorophenyl)-6-(4-isobutylphenyl)-2-oxo-1,2-dihydropyridine-3-carbonitrile (4j)], for which the IC50 (as a rule, the concentration at which inhibition is half-maximal) in assay [1] came to 0.93 µM; in assay [2], 6.5 µM.

Turning to `Cc1ccc(-c2cc(-c3ccc(NS(C)(=O)=O)cc3)[nH]c(=O)c2C#N)cc1` [6-(4-Methanesulfonylaminophenyl)-2-oxo-4-(4-tolyl)-1,2-dihydropyridine-3-carbonitrile (4n)], the IC50 turned out to be 1.3 µM in assay [1] and 8.6 µM in assay [2].

As for `N#Cc1c(-c2cccs2)cc(-c2ccc([N+](=O)[O-])cc2)[nH]c1=O` [6-(4-nitrophenyl)-2-oxo-4-(thiophen-2-yl)-1,2-dihydropyridine-3-carbonitrile (4f)], the IC50 in assay [1] is 0.87 µM; in assay [2] it was 6.8 µM.

Regarding `CS(=O)(=O)Nc1ccc(-c2cc(-c3ccc(Cl)cc3)c(C#N)c(=O)[nH]2)cc1` [4-(4-Chlorophenyl)-6-(4-methanesulfonylaminophenyl)-2-oxo-1,2-dihydropyridine-3-carbonitrile (4o)], the figures for the IC50 in assay [1] and in assay [2] were 3.4 µM and 15.3 µM, respectively.

Take `N#Cc1c(-c2ccc(Cl)cc2)cc(-c2ccc([N+](=O)[O-])cc2)[nH]c1=O` [4-(4-chlorophenyl)-6-(4-nitrophenyl)-2-oxo-1,2-dihydropyridine-3-carbonitrile (4c)]: the IC50 in assay [1] is 7.3 µM; in assay [2] it was 23.4 µM.

`Cc1ccc(C2CC(c3ccc(NS(C)(=O)=O)cc3)=NN2c2ccc(S(N)(=O)=O)cc2)cc1` (stereo not drawn) [1-(4-Aminosulfonylphenyl)-3-(4-methanesulfonylaminophenyl)-5-(4-tolyl)-4,5-dihydro-1H-pyrazole (6b)]: the IC50 in assay [1] was determined as 7.5 µM; in assay [2], 23.6 µM.

`N#Cc1c(-c2ccc(F)cc2)cc(-c2ccc([N+](=O)[O-])cc2)[nH]c1=O` [4-(4-Fluorophenyl)-6-(4-nitrophenyl)-2-oxo-1,2-dihydropyridine-3-carbonitrile (4d)]: the figures for the IC50 in assay [1] and in assay [2] were 4.6 µM and 13.4 µM, respectively.

For the compound `CS(=O)(=O)Nc1ccc(-c2cc(-c3ccccc3)c(C#N)c(=O)[nH]2)cc1` [6-(4-Methanesulfonylaminophenyl)-2-oxo-4-phenyl-1,2-dihydropyridine-3-carbonitrile (4m)], the values for the IC50 in assay [1] and in assay [2] were 1.6 µM and 9.4 µM, respectively.

Consider `CS(=O)(=O)Nc1ccc(C2=NN(c3ccc(S(N)(=O)=O)cc3)C(c3cccs3)C2)cc1` (stereo not drawn) [1-(4-Aminosulfonylphenyl)-5-(2-thienyl)-3-(4-methanesulfonylaminophenyl)-4,5-dihydro-1H-pyrazole (6f)], for which the IC50 turned out to be 7.8 µM in assay [1] and 25.1 µM in assay [2].

As to `CC(C)Cc1ccc(-c2cc(-c3ccc(Cl)cc3)c(C#N)c(=O)[nH]2)cc1` [4-(4-Chlorophenyl)-6-(4-isobutylphenyl)-2-oxo-1,2-dihydropyridine-3-carbonitrile (4i)], the IC50 in assay [1] amounted to 5.1 µM; in assay [2], 14.2 µM.

Take `Cc1ccc(-c2cc(-c3ccc([N+](=O)[O-])cc3)[nH]c(=O)c2C#N)cc1` [6-(4-Nitrophenyl)-2-oxo-4-(p-tolyl)-1,2-dihydropyridine-3-carbonitrile (4b)]: the IC50 was 2.9 µM in assay [1] and 12.9 µM in assay [2].

As for `CC(C)Cc1ccc(-c2cc(-c3ccccc3)c(C#N)c(=O)[nH]2)cc1` [6-(4-Isobutylphenyl)-2-oxo-4-phenyl-1,2-dihydropyridine-3-carbonitrile (4g)], the IC50 in assay [1] worked out at 3.4 µM; in assay [2], 13.1 µM.

Take `CC(C)Cc1ccc(-c2cc(-c3ccco3)c(C#N)c(=O)[nH]2)cc1` [4-(2-Furyl)-6-(4-isobutylphenyl)-2-oxo-1,2-dihydropyridine-3-carbonitrile (4k)]: the IC50 is 1.11 µM in assay [1] and 7.3 µM in assay [2].

In the case of `Cc1ccc(-c2cc(-c3ccc(CC(C)C)cc3)[nH]c(=O)c2C#N)cc1` [6-(4-Isobutylphenyl)-2-oxo-4-(p-tolyl)-1,2-dihydropyridine-3-carbonitrile (4h)], the IC50 in assay [1] came out at 2.7 µM; in assay [2] it was 11.2 µM.

As for `N#Cc1c(-c2ccco2)cc(-c2ccc([N+](=O)[O-])cc2)[nH]c1=O` [4-(2-Furyl)-6-(4-nitrophenyl)-2-oxo-1,2-dihydropyridine-3-carbonitrile (4e)], the IC50 was 1.2 µM in assay [1] and 8.9 µM in assay [2].

With `CS(=O)(=O)Nc1ccc(-c2cc(-c3cccs3)c(C#N)c(=O)[nH]2)cc1` [6-(4-Methanesulfonylaminophenyl)-2-oxo-4-(2-thienyl)-1,2-dihydropyridine-3-carbonitrile (4r)], the IC50 in assay [1] was 10.2 µM; in assay [2], 32.1 µM.

With `CS(=O)(=O)Nc1ccc(C2=NN(c3ccc(S(N)(=O)=O)cc3)C(c3ccc(Cl)cc3)C2)cc1` (stereo not drawn) [1-(4-Aminosulfonylphenyl)-5-(4-chlorophenyl)-3-(4-methanesulfonylaminophenyl)-4,5-dihydro-1H-pyrazole (6c)], the IC50 in assay [1] came out at 2.4 µM; in assay [2], 9.7 µM.

On to `CS(=O)(=O)Nc1ccc(C2=NN(c3ccc(S(N)(=O)=O)cc3)C(c3ccc(F)cc3)C2)cc1` (stereo not drawn) [1-(4-Aminosulfonylphenyl)-5-(4-fluorophenyl)-3-(4-methanesulfonylaminophenyl)-4,5-dihydro-1H-pyrazole (6d)], for which the IC50 in assay [1] was determined as 3.9 µM; in assay [2] it was 18.7 µM.

As to `CS(=O)(=O)Nc1ccc(C2=NN(c3ccc(S(N)(=O)=O)cc3)C(c3ccccc3)C2)cc1` (stereo not drawn) [1-(4-Aminosulfonylphenyl)-3-(4-methanesulfonylaminophenyl)-5-phenyl-4,5-dihydro-1H-pyrazole (6a)], the IC50 turned out to be 1.3 µM in assay [1] and 7.6 µM in assay [2].

For `N#Cc1c(-c2ccccc2)cc(-c2ccc([N+](=O)[O-])cc2)[nH]c1=O` [6-(4-nitrophenyl)-2-oxo-4-phenyl-1,2-dihydropyridine-3-carbonitrile (4a)], the IC50 in assay [1] turned out to be 3.8 µM; in assay [2], 12.4 µM.

`CS(=O)(=O)Nc1ccc(-c2cc(-c3ccc(F)cc3)c(C#N)c(=O)[nH]2)cc1` [4-(4-Fluorophenyl)-6-(4-methanesulfonylaminophenyl)-2-oxo-1,2-dihydropyridine-3-carbonitrile (4p)]: the IC50 in assay [1] was 2.5 µM; in assay [2] it was 10.7 µM.

As for `CS(=O)(=O)Nc1ccc(-c2cc(-c3ccco3)c(C#N)c(=O)[nH]2)cc1` [4-(2-Furyl)-6-(4-methanesulfonylaminophenyl)-2-oxo-1,2-dihydropyridine-3-carbonitrile (4q)], the IC50 was found to be 2.9 µM in assay [1] and 9.8 µM in assay [2].

Regarding `CS(=O)(=O)Nc1ccc(C2=NN(c3ccc(S(N)(=O)=O)cc3)C(c3ccco3)C2)cc1` (stereo not drawn) [1-(4-Aminosulfonylphenyl)-5-(2-furyl)-3-(4-methanesulfonylaminophenyl)-4,5-dihydro-1H-pyrazole (6e)], the figures for the IC50 in assay [1] and in assay [2] were 3.5 µM and 16.5 µM, respectively.

On to `CC(C)Cc1ccc(-c2cc(-c3cccs3)c(C#N)c(=O)[nH]2)cc1` [6-(4-Isobutylphenyl)-2-oxo-4-(2-thienyl)-1,2-dihydropyridine-3-carbonitrile (4l)], for which the figures for the IC50 in assay [1] and in assay [2] were 3.7 µM and 12.7 µM, respectively.
